Among the data in ChEMBL document CHEMBL1132957, “Design of potent dicyclic (4-10/5-8) gonadotropin releasing hormone (GnRH) antagonists” (J Med Chem, 2000) are Ki and Activity values, retold here.

For assay [1], the target named is T1, Gonadotropin-releasing hormone receptor (Rattus norvegicus, UniProt P30969).
T1 sequence (P30969 whole entry): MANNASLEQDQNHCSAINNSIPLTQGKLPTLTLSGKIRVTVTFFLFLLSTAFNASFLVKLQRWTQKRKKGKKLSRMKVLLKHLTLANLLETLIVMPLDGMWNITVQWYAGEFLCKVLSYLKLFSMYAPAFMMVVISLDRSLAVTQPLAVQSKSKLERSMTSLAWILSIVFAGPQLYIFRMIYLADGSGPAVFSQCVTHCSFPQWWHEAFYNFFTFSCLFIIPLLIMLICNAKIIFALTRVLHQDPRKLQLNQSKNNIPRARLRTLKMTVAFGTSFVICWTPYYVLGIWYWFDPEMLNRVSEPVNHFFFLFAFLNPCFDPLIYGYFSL
Description: Competitive radioligand binding assay, in human HEK293 cells stably transfected with the rat Gonadotropin-releasing hormone receptor. The class given is cell-based.

The test system of assay [2] is Rattus norvegicus. Description: Evaluated for the ovulation effects in the rat by administering the drug at the doses (1.0 ug); 4/4. The class given is functional, organism-based.
The test system of assay [3] is Rattus norvegicus. Description: Evaluated for the ovulation effects in the rat by administering the drug at the doses (2.5 ug); 3/8. The class given is functional, organism-based.
Assay [4] relates to Rattus norvegicus. Briefly: Evaluated for the ovulation effects in the rat by administering the drug at the doses (2.5 ug); 3/3. The class given is functional, organism-based.
Assay [5] relates to Rattus norvegicus. Briefly: Evaluated for the ovulation effects in the rat by administering the drug at the doses (5 ug); 2/6. The class given is functional, organism-based.
Assay [6] concerns Rattus norvegicus. Description: Evaluated for the ovulation effects in the rat by administering the drug at the doses (25 ug); 4/4. The class given is functional, organism-based.
In assay [7] the test system is Rattus norvegicus. Briefly: Evaluated for the ovulation effects in the rat by administering the drug at the doses (5 ug); 3/20. The class given is functional, organism-based.
Assay [8] relates to Rattus norvegicus. Briefly: Evaluated for the ovulation effects in the rat by administering the drug at the doses (2.5 ug); 9/10. The class given is functional, organism-based.
Assay [9] concerns Rattus norvegicus. Briefly: Evaluated for the ovulation effects in the rat by administering the drug at the doses (10 ug); 0/10. The class given is functional, organism-based.
For assay [10], the system named is Rattus norvegicus. Briefly: Evaluated for the ovulation effects in the rat by administering the drug at the doses (100 ug); 1/8. The class given is functional, organism-based.
Assay [11] concerns Rattus norvegicus. Briefly: Evaluated for the ovulation effects in the rat by administering the drug at the doses (25 ug); 2/5. The class given is functional, organism-based.
The test system of assay [12] is Rattus norvegicus. Briefly: Evaluated for the ovulation effects in the rat by administering the drug at the doses (50 ug); 2/8. The class given is functional, organism-based.
The subject of assay [13] is Rattus norvegicus. Description: Evaluated for the ovulation effects in the rat by administering the drug at the doses (5.0 ug); 4/7. The class given is functional, organism-based.
Assay [14] relates to Rattus norvegicus. Briefly: Evaluated for the ovulation effects in the rat by administering the drug at the doses (10 ug); 4/9. The class given is functional, organism-based.
Assay [15] has as its system Rattus norvegicus. Briefly: Evaluated for the ovulation effects in the rat by administering the drug at the doses (250 ug); 1/3.
Assay [16] has as its system Rattus norvegicus. Briefly: Evaluated for the ovulation effects in the rat by administering the drug at the doses (250 ug); 0/6. The class given is functional, organism-based.
In assay [17] the test system is Rattus norvegicus. Description: Evaluated for the ovulation effects in the rat by administering the drug at the doses (10 ug); 3/3. The class given is functional, organism-based.
Assay [18] has as its system Rattus norvegicus. Description: Evaluated for the ovulation effects in the rat by administering the drug at the doses (10 ug); 0/9. The class given is functional, organism-based.
The test system of assay [19] is Rattus norvegicus. Description: Evaluated for the ovulation effects in the rat by administering the drug at the doses (5 ug); 1/8. The class given is functional, organism-based.
For assay [20], the system named is Rattus norvegicus. Briefly: Evaluated for the ovulation effects in the rat by administering the drug at the doses (1.0 ug); 11/15. The class given is functional, organism-based.
The subject of assay [21] is Rattus norvegicus. Briefly: Evaluated for the ovulation effects in the rat by administering the drug at the doses (2.5 ug); 3/10. The class given is functional, organism-based.

The source made the active and inactive calls. The rule behind the calls is not given here. Positions of bridges follow the written chain, without caps; N, C: chain ends. Non-standard residues stand in square brackets, D forms with d. Residues, ends and D or L forms follow the SMILES beside them. dPhe(4-Cl) = N[C@H](Cc1ccc(Cl)cc1)C(=O)O; dPhe(4-F) = N[C@H](Cc1ccc(F)cc1)C(=O)O; d2Nal = N[C@H](Cc1ccc2ccccc2c1)C(=O)O; Dap = NC[C@H](N)C(=O)O

As to `CC(=O)N[C@H](Cc1ccc2ccccc2c1)C(=O)N[C@H](Cc1ccc(F)cc1)C(=O)N[C@H](Cc1c[nH]c2ccccc12)C(=O)N[C@H]1CC(=O)NC(C(N)=O)NC(=O)[C@@H]2CCCN2C(=O)[C@H](CCCNC(=N)N)NC(=O)[C@H](CC(C)C)NC(=O)[C@@H](CCCNC(=N)N)NC(=O)[C@H](Cc2ccc(O)cc2)NC1=O` (stereo not given in full), in [1] (hek293), the affinity corresponds to a Ki of 1.3 nM.
`CC(=O)N[C@H](Cc1ccc2ccccc2c1)C(=O)N[C@H](Cc1ccc(Cl)cc1)C(=O)N[C@H](Cc1cccnc1)C(=O)N[C@H]1CC(=O)NC[C@@H](C(N)=O)NC(=O)[C@@H]2CCCN2C(=O)[C@@H]2CCNC(=O)[C@H](Cc3c[nH]cn3)NC(=O)CC[C@H](NC1=O)C(=O)N[C@H](CCCN=C(N)N)C(=O)N[C@@H](CC(C)C)C(=O)N2`: the Ki (as a rule, the dissociation constant of the complex between target and ligand, obtained from inhibition or displacement) in [1] is 0.1 nM. Further, in the assay on Rattus norvegicus [2], the result was inactive. In addition, the Activity result in the assay with Rattus norvegicus [3] is “Weak activity”.
The molecule `CC(=O)N[C@H](Cc1ccc2ccccc2c1)C(=O)N[C@H](Cc1ccc(Cl)cc1)C(=O)N[C@H](Cc1cccnc1)C(=O)N[C@H]1CC(=O)NC[C@@H](C(N)=O)NC(=O)[C@@H]2CCCN2C(=O)[C@@H]2CCCNC(=O)[C@H](Cc3ccccc3)NC(=O)C[C@H](NC1=O)C(=O)N[C@H](CCCN=C(N)N)C(=O)N[C@@H](CC(C)C)C(=O)N2` gave a Ki in assay [1] of 0.75 nM. Besides, the outcome in the assay on Rattus norvegicus [4] was inactive. For the same molecule, the Activity entry in the assay on Rattus norvegicus [5] is “Weak activity”.
In turn, `CC(=O)N[C@H](Cc1ccc2ccccc2c1)C(=O)N[C@H](Cc1ccc(Cl)cc1)C(=O)N[C@H](Cc1cccnc1)C(=O)N[C@H]1CC(=O)NC[C@@H](C(N)=O)NC(=O)[C@@H]2CCCN2C(=O)[C@@H]2CCNC(=O)[C@H](Cc3ccccc3)NC(=O)C[C@H](NC1=O)C(=O)N[C@H](CCCN=C(N)N)C(=O)N[C@@H](CC(C)C)C(=O)N2` showed a Ki in [1] of 12 nM. Further, the outcome in the assay with Rattus norvegicus [6] was inactive.
`CC(=O)N[C@H](Cc1ccc2ccccc2c1)C(=O)N[C@H](Cc1ccc(Cl)cc1)C(=O)N[C@H](Cc1c[nH]c2ccccc12)C(=O)N[C@H]1CC(=O)NC[C@@H](C(N)=O)NC(=O)[C@@H]2CCCN2C(=O)[C@@H]2CCCCNC(=O)CC[C@H](NC1=O)C(=O)N[C@H](Cc1ccc3ccccc3c1)C(=O)N[C@@H](CC(C)C)C(=O)N2`: the affinity in assay [1], expressed as Ki, was 1.2 nM.
In the case of `CC(=O)N[C@H](Cc1ccc2ccccc2c1)C(=O)N[C@H](Cc1ccc(F)cc1)C(=O)N[C@H](Cc1c[nH]c2ccccc12)C(=O)N[C@H]1CC(=O)NC[C@@H](C(N)=O)NC(=O)[C@@H]2CCCN2C(=O)[C@H](CCCN=C(N)N)NC(=O)[C@H](CC(C)C)NC(=O)[C@@H](CCCN=C(N)N)NC(=O)[C@H](Cc2ccc(O)cc2)NC1=O` (Ac-[d2Nal][dPhe(4-F)][dW]DY[dR]LRP[Dap]-NH2; lactam 4-10), the Ki in [1] (hek293) came out at 0.36 nM.
The same measure, in the same setting: to `CC(=O)N[C@H](Cc1ccc2ccccc2c1)C(=O)N[C@H](Cc1ccc(F)cc1)C(=O)N[C@H](Cc1c[nH]c2ccccc12)C(=O)N[C@H]1CC(=O)NCC[C@@H](C(N)=O)NC(=O)[C@@H]2CCCN2C(=O)[C@H](CCCNC(=N)N)NC(=O)[C@H](CC(C)C)NC(=O)[C@@H](CCCNC(=N)N)NC(=O)[C@H](Cc2ccc(O)cc2)NC1=O` belongs 10 nM.
The molecule `CC(=O)N[C@H](Cc1ccc2ccccc2c1)C(=O)N[C@H](Cc1ccc(Cl)cc1)C(=O)N[C@H](Cc1c[nH]c2ccccc12)C(=O)N[C@H]1CC(=O)NC[C@@H](C(N)=O)NC(=O)[C@@H]2CCCN2C(=O)[C@@H]2CCCCNC(=O)CC[C@H](NC1=O)C(=O)N[C@H](CCCN=C(N)N)C(=O)N[C@@H](CC(C)C)C(=O)N2` (Ac-[d2Nal][dPhe(4-Cl)][dW]DE[dR]LKP[Dap]-NH2; lactam 4-10, 5-8) had a Ki in assay [1] of 0.32 nM. In the assay with Rattus norvegicus [7], the Activity result was “Weak activity”. Moreover, in the assay on Rattus norvegicus [8], the result was inactive. In the assay with Rattus norvegicus [9], the result was Active.
With `CC(=O)N[C@H](Cc1ccc2ccccc2c1)C(=O)N[C@H](Cc1ccc(Cl)cc1)C(=O)N[C@H](Cc1cccnc1)C(=O)N[C@H]1CC(=O)NC[C@@H](C(N)=O)NC(=O)[C@@H]2CCCN2C(=O)[C@@H]2CCCCNC(=O)CC[C@H](NC1=O)C(=O)N[C@H](Cc1ccc3ccccc3c1)C(=O)N[C@@H](CC(C)C)C(=O)N2`, in assay [1], the inhibition constant (Ki) was 1.3 nM. Also, the outcome in the assay with Rattus norvegicus [10] was Active. The Activity result in the assay on Rattus norvegicus [11] and in the assay on Rattus norvegicus [12] was “Weak activity” in each case.
In assay [1], `CC(=O)N[C@H](Cc1ccc2ccccc2c1)C(=O)N[C@H](Cc1ccc(Cl)cc1)C(=O)N[C@H](Cc1cccnc1)C(=O)N[C@H]1CC(=O)NC[C@@H](C(N)=O)NC(=O)[C@@H]2CCCN2C(=O)[C@@H]2CCNC(=O)CCNC(=O)C[C@H](NC1=O)C(=O)N[C@H](CCCN=C(N)N)C(=O)N[C@@H](CC(C)C)C(=O)N2` displayed a Ki of 0.37 nM. Further, the Activity result with Rattus norvegicus [13] was “Weak activity”.
Turning to `CC(=O)N[C@H](Cc1ccc2ccccc2c1)C(=O)N[C@H](Cc1ccc(Cl)cc1)C(=O)N[C@H](Cc1cccnc1)C(=O)N[C@H]1CC(=O)NC[C@@H](C(N)=O)NC(=O)[C@@H]2CCCN2C(=O)[C@@H]2CCNC(=O)CN(C)C(=O)CC[C@H](NC1=O)C(=O)N[C@H](CCCN=C(N)N)C(=O)N[C@@H](CC(C)C)C(=O)N2`, the inhibitory constant (Ki) in [1] is 0.2 nM. In addition, the Activity entry in the assay with Rattus norvegicus [14] is “Weak activity”.
Take `CC(=O)N[C@H](Cc1ccc2ccccc2c1)C(=O)N[C@H](Cc1ccc(Cl)cc1)C(=O)N[C@H](Cc1cccnc1)C(=O)N[C@H]1CC(=O)NC[C@@H](C(N)=O)NC(=O)[C@@H]2CCCN2C(=O)[C@@H]2CCNC(=O)[C@H](CCCN=C(N)N)NC(=O)CC[C@H](NC1=O)C(=O)N[C@H](Cc1cccnc1)C(=O)N[C@@H](CC(C)C)C(=O)N2`: the affinity in assay [1] corresponds to a Ki of 0.59 nM. In addition, the Activity entry in the assay with Rattus norvegicus [15] is “Weak activity”. In addition, the outcome with Rattus norvegicus [16] was Active. The outcome in the assay on Rattus norvegicus [17] was inactive.
For the molecule `CC[C@H](NC(C)=O)C(=O)N[C@@H](Cc1ccc(Cl)cc1)C(=O)N[C@@H](Cc1c[nH]c2ccccc12)C(=O)N[C@@H](CC(=O)O)C(=O)N[C@@H]1CCC(=O)NCCCC[C@@H](C(=O)N2CCC[C@@H]2C(=O)N[C@@H](C)C(N)=O)NC(=O)[C@H](CC(C)C)NC(=O)[C@@H](CCCNC(=N)N)NC1=O` (stereo in doubt; 13), in [1] (hek293), affinity was put at a Ki of 0.84 nM.
Still for that read-out and setting: to `CC(=O)N[C@H](Cc1ccc2ccccc2c1)C(=O)N[C@H](Cc1ccc(F)cc1)C(=O)N[C@H](Cc1c[nH]c2ccccc12)C(=O)N[C@H]1CCC(=O)NC(C(N)=O)NC(=O)[C@@H]2CCCN2C(=O)[C@H](CCCNC(=N)N)NC(=O)[C@H](CC(C)C)NC(=O)[C@@H](CCCNC(=N)N)NC(=O)[C@H](Cc2ccc(O)cc2)NC1=O` (stereo not given in full) belongs 1.3 nM.
In turn, `CC(=O)N[C@H](Cc1ccc2ccccc2c1)C(=O)N[C@H](Cc1ccc(Cl)cc1)C(=O)N[C@H](Cc1cccnc1)C(=O)N[C@H]1CC(=O)NC[C@@H](C(N)=O)NC(=O)[C@@H]2CCCN2C(=O)[C@@H]2CCNC(=O)[C@H](Cc3ccccc3)NC(=O)CC[C@H](NC1=O)C(=O)N[C@H](CCCN=C(N)N)C(=O)N[C@@H](CC(C)C)C(=O)N2` yielded an inhibition constant Ki in assay [1] of 0.23 nM. Moreover, the outcome in the assay with Rattus norvegicus [18] and with Rattus norvegicus [19] was Active. In the assay with Rattus norvegicus [20], the result was inactive. Moreover, in the assay on Rattus norvegicus [21], the Activity result was “Weak activity”.
